Measurements from patent US9676756B2 (PORTOLA PHARMACEUTICALS, INC., priority 2012, dated 2017).

Experiments:
[1] = test system: lymphoma cell lines and primary human lymphoma samples; details: cited from earlier work
[2] = test system: refractory NHL and chronic lymphocytic leukemia; details: phase II; cited from earlier work
[3] = test system: JAK kinases; details: cited from earlier work
[4] = test system: Src kinsase; details: cited from earlier work
[5] = test system: FcεR1 and BCR induced Syk activation; details: cited from earlier work
[6] = target: T1, JAK1 (Homo sapiens, UniProt P23458); assay: JAK tyrosine phosphorylation activity, Z'-LYTE FRET kinase assay; assay type: biochemical; details: catalytic domain recombinant kinase, Tyr6 peptide
T1 construct: 5 μl of catalytic domain recombinant Kinase enzyme+Tyr peptide substrate (Invitrogen, CA); purchased Invitrogen
Procedure, shortened: (§1)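 Catalytic-domain recombinant kinases with Tyr6 peptide substrate and ATP, 1% DMSO, reacted 1 h at room temperature, then protease development 1 h. FRET read at ex 400 nm, em 445/520 nm; inhibition from percent substrate phosphorylation versus no-inhibitor control, IC50 by 4-parameter logistic fit.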

[7] = target: T2, JAK2 (Homo sapiens, UniProt O60674); assay: as above; assay type: biochemical; details: catalytic domain recombinant kinase, Tyr6 peptide
T2 construct: 5 μl of catalytic domain recombinant Kinase enzyme+Tyr peptide substrate (Invitrogen, CA); purchased Invitrogen
Procedure, shortened: as §1

[8] = target: T3, JAK3 (Homo sapiens, UniProt P52333); assay: as above; assay type: biochemical; details: catalytic domain recombinant kinase, Tyr6 peptide
T3 construct: 5 μl of catalytic domain recombinant Kinase enzyme+Tyr peptide substrate (Invitrogen, CA); purchased Invitrogen
Procedure, shortened: as §1

[9] = target: T4, full length active recombinant SYK enzyme (Homo sapiens, UniProt P43405); assay: SYK tyrosine phosphorylation activity, LANCE TR-FRET kinase assay; assay type: biochemical; details: 1 nM SYK, 100 μM ATP, 1 hour at room temperature
T4 construct: full length active recombinant SYK enzyme (Millipore, CA); purchased Millipore
Procedure, shortened: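 Full-length active SYK (1 nM) phosphorylates 550 nM biotinylated substrate with 100 μM ATP in Tris pH 7.5, MgCl2, DTT, 3% DMSO, 1 h at room temperature. EDTA stop with Eu-anti-phosphotyrosine/SA-APC TR-FRET detection, 1 h. IC50 by non-linear regression.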

T3 sequence (P52333 822-1111 limits assumed): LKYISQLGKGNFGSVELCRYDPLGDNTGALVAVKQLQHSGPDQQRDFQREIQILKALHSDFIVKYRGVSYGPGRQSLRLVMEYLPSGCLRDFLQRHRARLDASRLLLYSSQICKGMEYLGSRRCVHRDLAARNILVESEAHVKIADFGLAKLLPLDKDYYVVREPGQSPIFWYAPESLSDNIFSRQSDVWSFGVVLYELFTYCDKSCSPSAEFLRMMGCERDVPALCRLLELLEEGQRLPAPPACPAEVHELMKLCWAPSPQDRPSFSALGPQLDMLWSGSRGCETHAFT
T2 sequence (O60674 849-1124 limits assumed): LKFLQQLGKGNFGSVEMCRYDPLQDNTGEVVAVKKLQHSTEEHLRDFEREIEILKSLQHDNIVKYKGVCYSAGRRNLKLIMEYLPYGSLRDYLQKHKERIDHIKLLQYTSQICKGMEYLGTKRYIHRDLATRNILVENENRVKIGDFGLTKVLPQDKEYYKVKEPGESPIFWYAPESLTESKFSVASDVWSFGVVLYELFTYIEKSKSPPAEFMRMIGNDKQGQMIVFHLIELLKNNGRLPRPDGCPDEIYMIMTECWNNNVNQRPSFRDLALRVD
T1 sequence (P23458 875-1153 limits assumed): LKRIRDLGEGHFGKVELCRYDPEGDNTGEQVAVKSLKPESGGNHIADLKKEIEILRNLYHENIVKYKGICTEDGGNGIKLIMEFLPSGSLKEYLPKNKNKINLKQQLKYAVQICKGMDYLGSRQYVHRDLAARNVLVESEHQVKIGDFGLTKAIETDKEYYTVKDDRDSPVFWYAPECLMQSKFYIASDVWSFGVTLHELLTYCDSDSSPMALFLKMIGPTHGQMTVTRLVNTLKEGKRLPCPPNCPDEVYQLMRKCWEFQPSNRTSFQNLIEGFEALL

Row | Structure (SMILES) | effect on BCR signaling ([1]; lymphoma cell lines and primary human lymphoma samples) | apoptosis ([1]; lymphoma cell lines) | clinical trial outcome [2] | activity against JAK kinases [3] | activity against Src kinase [4] | inhibition of ITAM signaling [5] | JAK1 IC50 potency class [6] | JAK2 IC50 potency class [7] | JAK3 IC50 potency class [8] | IC50 [9] | IC50 ([6]; read-out: JAK1 IC50 % Inhibition) [nM]
1 | COc1cc(Nc2ncc(F)c(Nc3ccc4c(n3)NC(=O)C(C)(C)O4)n2)cc(OC)c1OC [Compound R406] | attenuates BCR signaling | resulting in apoptosis | favorable results | active | not against | inhibit ITAM signaling |  |  |  |  | 
2 | CCOC(=O)N1CCC(c2ccc(Nc3ncc(C(N)=O)c(NC4CC4)n3)cc2)CC1 [Compound 11, ethyl 4-(4-((5-carbamoyl-4-(cyclopropylamino)pyrimidin-2-yl)amino)phenyl)piperidine-1-carboxylate] |  |  |  |  |  |  | ++ (1.0 uM<IC50<0.10 uM) | +++ (0.10 uM<IC50<0.01 uM) | +++ (0.10 uM<IC50<0.01 uM) | +++ (0.10 uM<IC50<0.01 uM) | 
3 | CCS(=O)(=O)N1CCN(c2ccc(Nc3ncc(C(N)=O)c(NC4CC4)n3)cc2C#N)CC1 [Compound 48, 2-((3-cyano-4-(4-(ethylsulfonyl)piperazin-1-yl)phenyl)amino)-4-(cyclopropylamino)pyrimidine-5-carboxamide] |  |  |  |  |  |  | ++ (1.0 uM<IC50<0.10 uM) | +++ (0.10 uM<IC50<0.01 uM) | ++++ (0.01 uM<IC50<0.001 uM) | ++ (1.0 uM<IC50<0.10 uM) | 
4 | NC(=O)c1cnc(Nc2ccc(C3CCN(C(=O)N4CCOCC4)CC3)cc2)nc1NC1CC1 [Compound 6, 4-(cyclopropylamino)-2-((4-(1-(morpholine-4-carbonyl)piperidin-4-yl)phenyl)amino)pyrimidine-5-carboxamide] |  |  |  |  |  |  | +++ (0.10 uM<IC50<0.01 uM) | ++++ (0.01 uM<IC50<0.001 uM) | ++++ (0.01 uM<IC50<0.001 uM) | +++ (0.10 uM<IC50<0.01 uM) | 
5 | CCC(=O)N1CCC(c2ccc(Nc3ncc(C(N)=O)c(NC4CC4)n3)cc2)CC1 [Compound 7, 4-(cyclopropylamino)-2-((4-(1-propionylpiperidin-4-yl)phenyl)amino)pyrimidine-5-carboxamide] |  |  |  |  |  |  | +++ (0.10 uM<IC50<0.01 uM) | ++++ (0.01 uM<IC50<0.001 uM) | ++++ (0.01 uM<IC50<0.001 uM) | +++ (0.10 uM<IC50<0.01 uM) | 
6 | CN(C)S(=O)(=O)N1CCC(c2ccc(Nc3ncc(C(N)=O)c(NC4CC4)n3)cc2)CC1 [Compound 12, 4-(cyclopropylamino)-2-((4-(1-(N,N-dimethylsulfamoyl)piperidin-4-yl)phenyl)amino)pyrimidine-5-carboxamide] |  |  |  |  |  |  | +++ (0.10 uM<IC50<0.01 uM) | +++ (0.10 uM<IC50<0.01 uM) | ++++ (0.01 uM<IC50<0.001 uM) | ++ (1.0 uM<IC50<0.10 uM) | 
7 | NC(=O)c1cnc(Nc2ccc(C3CCN(S(=O)(=O)C4CC4)CC3)cc2)nc1NC1CC1 [Compound 2, 4-(cyclopropylamino)-2-((4-(1-(cyclopropylsulfonyl)piperidin-4-yl)phenyl)amino)pyrimidine-5-carboxamide] |  |  |  |  |  |  | +++ (0.10 uM<IC50<0.01 uM) | ++++ (0.01 uM<IC50<0.001 uM) | ++++ (0.01 uM<IC50<0.001 uM) | +++ (0.10 uM<IC50<0.01 uM) | 
8 | NC(=O)c1cnc(Nc2ccc(C3CCNCC3)cc2)cc1NC1CC1 [Compound 63, 4-(cyclopropylamino)-6-((4-(piperidin-4-yl)phenyl)amino)nicotinamide] |  |  |  |  |  |  |  | ++ (1.0 uM<IC50<0.10 uM) | ++ (1.0 uM<IC50<0.10 uM) | ++ (1.0 uM<IC50<0.10 uM) | > 1000
9 | NC(=O)c1cnc(Nc2ccc(C3CCN(C4CCCC4)CC3)cc2)nc1NC1CC1 [Compound 8, 2-((4-(1-cyclopentylpiperidin-4-yl)phenyl)amino)-4-(cyclopropylamino)pyrimidine-5-carboxamide] |  |  |  |  |  |  | +++ (0.10 uM<IC50<0.01 uM) | ++++ (0.01 uM<IC50<0.001 uM) | ++++ (0.01 uM<IC50<0.001 uM) | +++ (0.10 uM<IC50<0.01 uM) | 
